Read-outs that look alike come from different tables or passages of the source.
How the values were obtained:
Assay type in all cases: cell-based
[1] = test system: UACC-257; assay: NCI in vitro SRB assay, Melanoma; settings: for CC50 / GI50: Homo sapiens
Experimental: (§1) An in vitro assay which tested the ability of N,N,-diethyl-8,8-dipropyl-2-azaspiro[4,5]decane-2-propanamine dimaleate (Compound 1) to inhibit the growth of known cancer cell lines was performed by the National Cancer Institute in accordance with standard procedures. See: Lin, Z. X., Hoult, J. R., and Raman, A. Sulphorhodamine B assay for measuring proliferation of a pigmented melanocyte cell line and its application to the evaluation of crude drugs used in the treatment of vitiligo. J Ethnopharmacol. 66: 141-150, 1999. Briefly, selected tumor cell lines were cultured in media containing five different concentrations of Compound 1. After 48 hours of continuous exposure, a sulforhodamine B (SRB) assay was used to estimate cell viability or growth via optical measurements.
(§2) From the measurements, the following values were determined: 1) the concentration of Compound 1 at which a tumor cell growth inhibition of 50% (relative to control) occurs (GI50), 2) the concentration of Compound 1 at which no growth occurs (total growth inhibition, TGI), and 3) the concentration of Compound 1 at which the […] (LC 50). […] FIG. 6 illustrates, graphically, tumor cell growth as a function of Compound 1 concentration of the scanned tumor cell lines.

[2] = test system: UACC-62; assay: NCI in vitro SRB assay, Melanoma; settings: for CC50 / GI50: Homo sapiens
Experimental: as §1, §2

[3] = test system: SK-MEL-2; assay: NCI in vitro SRB assay, Melanoma; settings: for CC50 / GI50: Homo sapiens
Experimental: as §1, §2

[4] = test system: MALME-3M; assay: NCI in vitro SRB assay, Melanoma; settings: for CC50 / GI50: Homo sapiens, Malme-3M
Experimental: as §1, §2

[5] = test system: SK-MEL-28; assay: NCI in vitro SRB assay, Melanoma; settings: for CC50 / GI50: Homo sapiens
Experimental: as §1, §2

[6] = test system: SK-MEL-5; assay: NCI in vitro SRB assay, Melanoma; settings: for CC50 / GI50: Homo sapiens
Experimental: as §1, §2

[7] = test system: CaCo-2 cells; assay: Inhibition of CaCo-2 colon carcinoma cell proliferation (WST-1, Example 1); settings: Homo sapiens, 24 hours incubation
Experimental: The effect of N,N,-diethyl-8,8-dipropyl-2-azaspiro[4,5]decane-2-propanamine dimaleate (Compound 1) on proliferation of human colon carcinoma cells T84 and CaCo-2 was evaluated in the following manner. Cell proliferation was measured by WST-1 dye conversion to Formazan assay using the proliferation kit from BioVision, CA. The procedure used was essentially as described in the manufacture's instructions. Briefly, cells were grown for 7 days until they formed semi-confluent monolayers. On day 7, cells were trypsinized and resuspended in 96-well plates at a concentration of approximately 40,000 cells/well and allowed to grow for 24 hours at 37° C.
Subsequently, fresh media containing increasing concentrations of Compound 1, as indicated in the FIG. 1, were added and assay plates were further incubated for an additional period of 24 hours. A solution of 5 μl of WST-1 dye per well was added and plates were read after 4 hours at 440 and 600 nm using an ELISA plate reader. The absorbance at 440 minus that at 600 nm is directly proportion to the number of proliferating cells. All samples were measured in triplicate and results were expressed as an average of three determinations.

[8] = UACC-257, Log10 conc -4.0 Moles/L
[9] = UACC-257, Log10 conc -5.0 Moles/L
[10] = UACC-257, Log10 conc -6.0 Moles/L
[11] = UACC-257, Log10 conc -7.0 Moles/L
[12] = UACC-257, Log10 conc -8.0 Moles/L
[13] = UACC-62, Log10 conc -4.0 Moles/L
[14] = UACC-62, Log10 conc -5.0 Moles/L
[15] = UACC-62, Log10 conc -6.0 Moles/L
[16] = UACC-62, Log10 conc -7.0 Moles/L
[17] = UACC-62, Log10 conc -8.0 Moles/L
[18] = SK-MEL-2, Log10 conc -4.0 Moles/L
[19] = SK-MEL-2, Log10 conc -5.0 Moles/L
[20] = SK-MEL-2, Log10 conc -6.0 Moles/L
[21] = SK-MEL-2, Log10 conc -7.0 Moles/L
[22] = SK-MEL-2, Log10 conc -8.0 Moles/L
[23] = MALME-3M, Log10 conc -4.0 Moles/L
[24] = MALME-3M, Log10 conc -5.0 Moles/L
[25] = MALME-3M, Log10 conc -6.0 Moles/L
[26] = MALME-3M, Log10 conc -7.0 Moles/L
[27] = MALME-3M, Log10 conc -8.0 Moles/L
[28] = SK-MEL-28, Log10 conc -4.0 Moles/L
[29] = SK-MEL-28, Log10 conc -5.0 Moles/L
[30] = SK-MEL-28, Log10 conc -6.0 Moles/L
[31] = SK-MEL-28, Log10 conc -7.0 Moles/L
[32] = SK-MEL-28, Log10 conc -8.0 Moles/L
[33] = SK-MEL-5, Log10 conc -4.0 Moles/L
[34] = SK-MEL-5, Log10 conc -5.0 Moles/L
[35] = SK-MEL-5, Log10 conc -6.0 Moles/L
[36] = SK-MEL-5, Log10 conc -7.0 Moles/L
[37] = SK-MEL-5, Log10 conc -8.0 Moles/L

Structure (SMILES): CCCC1(CCC)CCC2(CCN(CCCN(CC)CC)C2)CC1.O=C(O)/C=C\C(=O)O.O=C(O)/C=C\C(=O)O [Compound 1, N,N,-diethyl-8,8-dipropyl-2-azaspiro[4,5]decane-2-propanamine dimaleate]
- CC50 ([1]; UACC-257, read-out: LC50): 8.74 µM
- CC50 ([1]; UACC-257, read-out: Log10 LC50 (converted)): 8.71 µM
- GI50 ([1]; UACC-257, read-out: GI50): 1740 nM
- GI50 ([1]; UACC-257, read-out: Log10 GI50 (converted)): 1740 nM
- Log10 TGI ([1]; UACC-257): −5.41
- TGI ([1]; UACC-257): 3.9 µM
- Mean Optical Densities [1, 8]: 0.113
- Percent Growth [1, 8]: −75%
- Mean Optical Densities [1, 9]: 0.190
- Percent Growth [1, 9]: −58%
- Mean Optical Densities [1, 10]: 1.302
- Percent Growth [1, 10]: 84%
- Mean Optical Densities [1, 11]: 1.427
- Percent Growth [1, 11]: 97%
- Mean Optical Densities [1, 12]: 1.403
- Percent Growth [1, 12]: 94%
- CC50 ([2]; UACC-62, read-out: LC50): 2530 nM
- CC50 ([2]; UACC-62, read-out: Log10 LC50 (converted)): 2510 nM
- GI50 ([2]; UACC-62, read-out: GI50): 218 nM
- GI50 ([2]; UACC-62, read-out: Log10 GI50 (converted)): 219 nM
- Log10 TGI ([2]; UACC-62): −6.19
- TGI ([2]; UACC-62): 642 nM
- Mean Optical Densities [2, 13]: 0.060
- Percent Growth [2, 13]: −89%
- Mean Optical Densities [2, 14]: 0.034
- Percent Growth [2, 14]: −94%
- Mean Optical Densities [2, 15]: 0.421
- Percent Growth [2, 15]: −21%
- Mean Optical Densities [2, 16]: 1.379
- Percent Growth [2, 16]: 86%
- Mean Optical Densities [2, 17]: 1.375
- Percent Growth [2, 17]: 85%
- CC50 ([3]; SK-MEL-2, read-out: LC50): > 100 µM
- CC50 ([3]; SK-MEL-2, read-out: Log10 LC50 (converted)): > 100 µM
- GI50 ([3]; SK-MEL-2, read-out: GI50): 3.45 µM
- GI50 ([3]; SK-MEL-2, read-out: Log10 GI50 (converted)): 3.47 µM
- Log10 TGI ([3]; SK-MEL-2): >−4.00
- TGI ([3]; SK-MEL-2): >100 µM
- Mean Optical Densities [3, 18]: 0.168
- Percent Growth [3, 18]: 7%
- Mean Optical Densities [3, 19]: 0.167
- Percent Growth [3, 19]: 7%
- Mean Optical Densities [3, 20]: 1.199
- Percent Growth [3, 20]: 100%
- Mean Optical Densities [3, 21]: 1.191
- Percent Growth [3, 21]: 99%
- Mean Optical Densities [3, 22]: 1.191
- Percent Growth [3, 22]: 99%
- CC50 ([4]; read-out: LC50): 5.9 µM
- CC50 ([4]; read-out: Log10 LC50 (converted)): 5.89 µM
- GI50 ([4]; read-out: GI50): 1600 nM
- GI50 ([4]; read-out: Log10 GI50 (converted)): 1580 nM
- Log10 TGI ([4]; MALME-3M): −5.51
- TGI ([4]; MALME-3M): 3.07 µM
- Mean Optical Densities [4, 23]: 0.084
- Percent Growth [4, 23]: −91%
- Mean Optical Densities [4, 24]: 0.089
- Percent Growth [4, 24]: −91%
- Mean Optical Densities [4, 25]: 1.108
- Percent Growth [4, 25]: 86%
- Mean Optical Densities [4, 26]: 1.047
- Percent Growth [4, 26]: 55%
- Mean Optical Densities [4, 27]: 1.103
- Percent Growth [4, 27]: 84%
- CC50 ([5]; SK-MEL-28, read-out: LC50): 4.86 µM
- CC50 ([5]; SK-MEL-28, read-out: Log10 LC50 (converted)): 4.9 µM
- GI50 ([5]; SK-MEL-28, read-out: GI50): 561 nM
- GI50 ([5]; SK-MEL-28, read-out: Log10 GI50 (converted)): 562 nM
- Log10 TGI ([5]; SK-MEL-28): −5.72
- TGI ([5]; SK-MEL-28): 1.89 µM
- Mean Optical Densities [5, 28]: 0.026
- Percent Growth [5, 28]: −95%
- Mean Optical Densities [5, 29]: 0.061
- Percent Growth [5, 29]: −88%
- Mean Optical Densities [5, 30]: 0.846
- Percent Growth [5, 30]: 34%
- Mean Optical Densities [5, 31]: 1.473
- Percent Growth [5, 31]: 98%
- Mean Optical Densities [5, 32]: 1.301
- Percent Growth [5, 32]: 80%
- CC50 ([6]; SK-MEL-5, read-out: LC50): 5.25 µM
- CC50 ([6]; SK-MEL-5, read-out: Log10 LC50 (converted)): 5.25 µM
- GI50 ([6]; SK-MEL-5, read-out: GI50): 1280 nM
- GI50 ([6]; SK-MEL-5, read-out: Log10 GI50 (converted)): 1290 nM
- Log10 TGI ([6]; SK-MEL-5): −5.59
- TGI ([6]; SK-MEL-5): 2.59 µM
- Mean Optical Densities [6, 33]: −0.001
- Percent Growth [6, 33]: −100%
- Mean Optical Densities [6, 34]: 0.021
- Percent Growth [6, 34]: −96%
- Mean Optical Densities [6, 35]: 1.420
- Percent Growth [6, 35]: 68%
- Mean Optical Densities [6, 36]: 1.797
- Percent Growth [6, 36]: 95%
- Mean Optical Densities [6, 37]: 1.779
- Percent Growth [6, 37]: 93%
- IC50 [7]: 625 to 1250 nM

Reference: US20050250801A1, “Method of treating cancer with azaspirane compositions” (priority 2003, published 2005)
